Reference: ChEMBL document CHEMBL1143920, “Meclonazepam analogues as potential new antihelmintic agents” (Bioorg Med Chem Lett, 2008)
≈ marks a conversion by molar mass, not a printed value.

System: Schistosoma mansoni
Assay: Anthelmintic activity against Schistosoma mansoni
Assay type: functional, organism-based

CC1N=C(c2ccccc2Cl)c2cc(N)ccc2NC1=O (centres undefined)
IC50: > 10 µg/mL

C[C@@H]1N=C(c2ccccc2Cl)c2cc([N+](=O)[O-])ccc2NC1=O [MECLONAZEPAM]
IC50: 0.37 µg/mL (≈ 1.12 µM)

CC1N=C(c2ccccc2Cl)c2c(/N=N/c3ccc(O)cc3Br)cccc2NC1=O (centres undefined)
IC50: 10 µg/mL (≈ 20.7 µM)

CC1N=C(c2ccccc2Cl)c2cc([N+](=O)[O-])ccc2NC1=S (centres undefined)
IC50: 0.35 µg/mL (≈ 1.01 µM)

CC1N=C(c2ccccc2Cl)c2c(/N=N\c3ccc(O)c4ccccc34)cccc2NC1=O (centres undefined)
IC50: 9.1 µg/mL (≈ 20 µM)

CC1NC(c2ccccc2Cl)c2cc([N+](=O)[O-])ccc2NC1=S (centres undefined)
IC50: 4.75 µg/mL (≈ 13.7 µM)

CC1N=C(c2ccccc2Cl)c2c(/N=N\c3c(O)ccc4ccccc34)cccc2NC1=O (centres undefined)
IC50: > 10 µg/mL

CC1N=C(c2ccccc2Cl)c2c(/N=N/c3c(Cl)cc(O)cc3Cl)cccc2NC1=O (centres undefined)
IC50: 5.79 µg/mL (≈ 12.2 µM)

CC1N=C(c2ccccc2Cl)c2c(/N=N/c3ccc(O)c(C(C)C)c3)cccc2NC1=O (centres undefined)
IC50: 5.79 µg/mL (≈ 13 µM)

CC1NC(c2ccccc2Cl)c2cc([N+](=O)[O-])ccc2NC1=O (centres undefined)
IC50: 1.3 µg/mL (≈ 3.92 µM)

CC1N=C(c2ccccc2Cl)c2c(/N=N/c3ccc(O)cc3)cccc2NC1=O (centres undefined)
IC50: > 10 µg/mL

Cc1cc(C)c(O)c(/N=N/c2cccc3c2C(c2ccccc2Cl)=NC(C)C(=O)N3)c1 (centres undefined)
IC50: > 10 µg/mL

CC1N=C(c2ccccc2Cl)c2c(/N=N/c3c(F)cc(O)cc3F)cccc2NC1=O (centres undefined)
IC50: 3.8 µg/mL (≈ 8.62 µM)

CCc1cc(/N=N/c2cccc3c2C(c2ccccc2Cl)=NC(C)C(=O)N3)ccc1O (centres undefined)
IC50: 5.79 µg/mL (≈ 13.4 µM)
